Results as given in the CheMixHub viscosity set.

Assay: xn = mol fraction of the nth substance listed

CCOCCO + O
viscosity [mPa·s]
Details	101 kPa	101.33 kPa
293.15 K, x1 = 0.02202	1.422	–
293.15 K, x1 = 0.04761	2.02	–
293.15 K, x1 = 0.07883	2.731	–
293.15 K, x1 = 0.1177	3.402	–
293.15 K, x1 = 0.1666	3.943	–
293.15 K, x1 = 0.2304	4.205	–
293.15 K, x1 = 0.318	4.219	–
293.15 K, x1 = 0.4441	3.838	–
293.15 K, x1 = 0.5303	3.471	–
293.15 K, x1 = 0.6418	3.081	–
293.15 K, x1 = 0.7202	2.836	–
293.15 K, x1 = 0.8271	2.502	–
293.15 K, x1 = 0.9078	2.27	–
298.15 K, x1 = 0.0104	–	1.04
298.15 K, x1 = 0.0217	–	1.25
298.15 K, x1 = 0.0341	–	1.44
298.15 K, x1 = 0.0476	–	1.7
298.15 K, x1 = 0.0625	–	1.97
298.15 K, x1 = 0.0789	–	2.26
298.15 K, x1 = 0.0972	–	2.54
298.15 K, x1 = 0.1176	–	2.8
298.15 K, x1 = 0.1406	–	3.05
298.15 K, x1 = 0.1666	–	3.24
298.15 K, x1 = 0.1964	–	3.38
298.15 K, x1 = 0.2307	–	3.48
298.15 K, x1 = 0.2707	–	3.47
298.15 K, x1 = 0.3181	–	3.45
298.15 K, x1 = 0.3749	–	3.33
298.15 K, x1 = 0.4443	–	3.14
298.15 K, x1 = 0.5311	–	2.89
298.15 K, x1 = 0.6428	–	2.58
298.15 K, x1 = 0.7916	–	2.19
298.15 K, x2 = 0.11	–	1.991
298.15 K, x2 = 0.2089	–	2.215
298.15 K, x2 = 0.294	–	2.441
298.15 K, x2 = 0.4058	–	2.765
298.15 K, x2 = 0.5043	–	3.031
298.15 K, x2 = 0.5995	–	3.311
298.15 K, x2 = 0.7033	–	3.504
298.15 K, x2 = 0.8037	–	3.376
298.15 K, x2 = 0.902	–	2.55
303.15 K, x1 = 0.0104	–	0.92
303.15 K, x1 = 0.0217	–	1.11
303.15 K, x1 = 0.02202	1.097	–
303.15 K, x1 = 0.0341	–	1.27
303.15 K, x1 = 0.0476	–	1.5
303.15 K, x1 = 0.04761	1.485	–
303.15 K, x1 = 0.0625	–	1.72
303.15 K, x1 = 0.07883	1.928	–
303.15 K, x1 = 0.0789	–	1.96
303.15 K, x1 = 0.0972	–	2.18
303.15 K, x1 = 0.1176	–	2.4
303.15 K, x1 = 0.1177	2.355	–
303.15 K, x1 = 0.1406	–	2.61
303.15 K, x1 = 0.1666	2.703	2.78
303.15 K, x1 = 0.1964	–	2.9
303.15 K, x1 = 0.2304	2.92	–
303.15 K, x1 = 0.2307	–	3
303.15 K, x1 = 0.2707	–	3.03
303.15 K, x1 = 0.318	2.951	–
303.15 K, x1 = 0.3181	–	3.02
303.15 K, x1 = 0.3749	–	2.93
303.15 K, x1 = 0.4443	–	2.77
303.15 K, x1 = 0.5303	2.547	–
303.15 K, x1 = 0.5311	–	2.56
303.15 K, x1 = 0.6418	2.28	–
303.15 K, x1 = 0.6428	–	2.31
303.15 K, x1 = 0.7202	2.126	–
303.15 K, x1 = 0.7916	–	1.97
303.15 K, x1 = 0.8271	1.912	–
303.15 K, x1 = 0.9078	1.764	–
308.15 K, x1 = 0.1406	–	2.24
308.15 K, x1 = 0.1666	–	2.38
308.15 K, x1 = 0.1964	–	2.49
308.15 K, x1 = 0.2307	–	2.58
308.15 K, x1 = 0.2707	–	2.62
308.15 K, x1 = 0.3181	–	2.61
308.15 K, x1 = 0.3749	–	2.55
308.15 K, x1 = 0.4443	–	2.43
308.15 K, x1 = 0.5311	–	2.26
308.15 K, x1 = 0.6428	–	2.04
308.15 K, x1 = 0.7916	–	1.76
308.15 K, x2 = 0.1041	–	1.418
308.15 K, x2 = 0.1944	–	1.621
308.15 K, x2 = 0.2933	–	1.785
308.15 K, x2 = 0.4988	–	2.148
308.15 K, x2 = 0.5964	–	2.307
308.15 K, x2 = 0.699	–	2.385
308.15 K, x2 = 0.7918	–	2.32
308.15 K, x2 = 0.8469	–	2.111
308.15 K, x2 = 0.8976	–	1.787
308.15 K, x2 = 0.9491	–	1.279
313.15 K, x1 = 0.02202	0.8665	–
313.15 K, x1 = 0.04761	1.14	–
313.15 K, x1 = 0.07883	1.456	–
313.15 K, x1 = 0.1177	1.727	–
313.15 K, x1 = 0.1666	1.967	–
313.15 K, x1 = 0.2304	2.124	–
313.15 K, x1 = 0.318	2.14	–
313.15 K, x1 = 0.4441	2.011	–
313.15 K, x1 = 0.5303	1.9	–
313.15 K, x1 = 0.6418	1.731	–
313.15 K, x1 = 0.7202	1.614	–
313.15 K, x1 = 0.8271	1.491	–
313.15 K, x1 = 0.9078	1.399	–
323.15 K, x1 = 0.02202	0.6974	–
323.15 K, x1 = 0.04761	0.8748	–
323.15 K, x1 = 0.07883	1.105	–
323.15 K, x1 = 0.1177	1.32	–
323.15 K, x1 = 0.1666	1.479	–
323.15 K, x1 = 0.2304	1.613	–
323.15 K, x1 = 0.318	1.656	–
323.15 K, x1 = 0.4441	1.591	–
323.15 K, x1 = 0.5303	1.514	–
323.15 K, x1 = 0.6418	1.398	–
323.15 K, x1 = 0.7202	1.324	–
323.15 K, x1 = 0.8271	1.212	–
323.15 K, x1 = 0.9078	1.133	–

NCCCC[C@H](N)C(=O)[O-].[K+] + O
viscosity [mPa·s]
Details	293.15 K	298.15 K	303.15 K	308.15 K	313.15 K	318.15 K	323.15 K
100 kPa, x1 = 0.01	–	1.138	–	–	–	–	–
100 kPa, x1 = 0.02	–	1.642	–	–	–	–	–
101.3 kPa, x1 = 0.00479	1.183	1.051	0.9411	0.847	0.7675	0.7007	0.6435
101.3 kPa, x1 = 0.00923	1.393	1.226	1.092	0.9834	0.8868	0.8069	0.7376
101.3 kPa, x1 = 0.015	1.599	1.408	1.251	1.12	1.01	0.916	0.8358
101.3 kPa, x1 = 0.01985	1.92	1.683	1.49	1.328	1.194	1.077	0.9784
101.3 kPa, x1 = 0.03254	2.783	2.408	2.108	1.861	1.655	1.483	1.337
101.3 kPa, x1 = 0.0375	2.961	2.59	2.233	1.989	1.744	1.577	1.404
101.3 kPa, x1 = 0.0395	–	–	1.868	–	1.448	–	1.128
101.3 kPa, x1 = 0.04425	4.174	–	3.071	–	2.351	2.094	1.872
101.3 kPa, x1 = 0.0501	4.177	3.576	3.074	2.687	2.353	2.092	1.861
101.3 kPa, x1 = 0.0595	–	–	3.237	–	2.45	–	1.863
101.3 kPa, x1 = 0.06157	6.645	5.544	4.71	4.049	3.517	3.081	2.722
101.3 kPa, x1 = 0.0617	5.683	4.806	4.086	3.537	3.072	2.71	2.394
101.3 kPa, x1 = 0.0705	7.066	5.922	4.999	4.299	3.709	3.251	2.858
101.3 kPa, x1 = 0.0741	7.638	6.379	5.359	4.594	3.949	3.453	3.025
101.3 kPa, x1 = 0.0855	–	–	4.606	–	3.452	–	2.598

CC(C)CCO + c1ccccc1
viscosity [mPa·s], 101 kPa
Details	293.15 K	298.15 K	303.15 K	308.15 K	313.15 K	318.15 K	323.15 K
x1 = 0.05	0.673	0.627	0.586	0.548	0.515	0.484	0.456
x1 = 0.1	0.705	0.656	0.612	0.573	0.537	0.505	0.475
x1 = 0.15	0.739	0.688	0.641	0.6	0.562	0.527	0.496
x1 = 0.2	0.777	0.723	0.673	0.629	0.589	0.552	0.519
x1 = 0.25	0.819	0.761	0.708	0.661	0.618	0.58	0.544
x1 = 0.3	0.866	0.804	0.748	0.697	0.651	0.61	0.572
x1 = 0.35	0.919	0.852	0.791	0.737	0.688	0.643	0.602
x1 = 0.4	0.979	0.906	0.84	0.782	0.728	0.68	0.636
x1 = 0.45	1.046	0.967	0.896	0.832	0.774	0.722	0.674
x1 = 0.5	1.124	1.037	0.96	0.89	0.826	0.769	0.717
x1 = 0.55	1.214	1.119	1.033	0.956	0.886	0.823	0.766
x1 = 0.6	1.321	1.214	1.118	1.032	0.955	0.885	0.822
x1 = 0.65	1.447	1.326	1.219	1.122	1.036	0.957	0.887
x1 = 0.7	1.6	1.462	1.339	1.23	1.131	1.042	0.962
x1 = 0.75	1.789	1.629	–	–	–	–	–
